Assay results: patent US20240100473A1, “CARBON DIOXIDE ABSORBER” (MITSUBISHI GAS CHEMICAL COMPANY, INC., priority 2021, published 2024)

Legend:
[1] = Acid dissociation constant (pKa) by acid-base titration; type: physicochemical; conditions: 0.2 g in 30 mL purified water, 25±2° C.
Description: In the present embodiments, the acid dissociation constant of the amine compound (A) is a value obtained by the following measurement method based on an acid-base titration method. • (1) Dissolving 0.2 g of the amine compound (A) in 30 mL of purified water. • (2) Calculating the acid dissociation constant (pKa) by titrating the solution obtained in the above (1) with 0.1 N perchloric acid-acetic acid solution using an automatic potentiometric titrator (for example, AT-610 produced by Kyoto Electronics Manufacturing Co., Ltd.).
(Acid Dissociation Constant (pKa) of Amine Compound)
The acid dissociation constant of the amine compound was determined by the following method. • (1) Dissolving 0.2 g of the amine compound in 30 mL of the purified water. • (2) Calculating the acid dissociation constant (pKa) by titrating the solution obtained in the above (1) with the 0.1 N perchloric acid-acetic acid solution using the automatic potentiometric titrator (AT-610 produced by Kyoto Electronics Manufacturing Co., Ltd.).
Still, let the temperature at the time of measurement be 25±2° C.

[2] = Amine value of amine compound (JIS K7237-1995 titration); type: physicochemical; conditions: 0.1 g in 20 mL acetic acid, titrated with 0.1 N perchloric acid-acetic acid
Description: The amine value can be measured by the following method in accordance with JIS K7237-1995. • (1) Dissolving 0.1 g of the amine compound (A) in 20 mL of acetic acid. • (2) Calculating the amine value by titrating the solution obtained in the above (1) with the 0.1 N perchloric acid-acetic acid solution using the automatic potentiometric titrator (for example, AT-610 produced by Kyoto Electronics Manufacturing Co., Ltd.).
(Amine Value of Amine Compound)
The amine value was measured by the following measurement method in accordance with JIS K7237-1995. • (1) Dissolving 0.1 g of the amine compound in 20 mL of the acetic acid. • (2) Calculating the amine value by titrating the solution obtained in the above (1) with the 0.1 N perchloric acid-acetic acid solution using the automatic potentiometric titrator (AT-610 produced by Kyoto Electronics Manufacturing Co., Ltd.).

[3] = Maximum carbon dioxide release temperature of amine compound (DSC); type: physicochemical; conditions: amine compound with CO2 absorbed from air for 24 h; DSC 23 to 250° C., 10° C./min, nitrogen atmosphere
Description: The amine compound (A) is heated with carbon dioxide absorbed from 23° C. to 250° C. at 10° C./minute of a heating rate, and a temperature at which an endothermic amount associated with desorption of carbon dioxide reaches a maximum is measured, and this temperature is taken as the maximum carbon dioxide release temperature. Here, the amine compound (A) with carbon dioxide absorbed can be prepared, for example, by allowing 5 mmol of the amine compound (A) to stand in the air at 23° C. and 50% RH for 24 hours.
(Maximum Carbon Dioxide (CO2) Release Temperature of Amine Compound)
After the above evaluation of the absorbed amount of carbon dioxide from the air was completed, the amine compound was removed from the desiccator as the amine compound having carbon dioxide absorbed. The DSC measurement was performed on the amine compound with carbon dioxide absorbed as follows, to measure the maximum carbon dioxide release temperature of the amine compound. First, the differential scanning calorimetry was performed on the amine compound using the differential thermogravimetric analyzer (Product Name: DTG-60 produced by Shimadzu Corporation) under the conditions of 23 to 250° C. of a measurement temperature range, 10° C./min of the heating rate, and the nitrogen atmosphere. From the DSC curve obtained thereby, the temperature at which the endothermic amount associated with the desorption of carbon dioxide reached the maximum was calculated, and the temperature thereof was used as the maximum carbon dioxide release temperature of the amine compound.

[4] = Maximum endothermic temperature of amine compound (DSC); type: physicochemical; conditions: DSC 23 to 350° C., 10° C./min, nitrogen atmosphere; volatilization of amine compound
Description: Heating the amine compound (A) from 23° C. to 350° C. at 10° C./minute of the heating rate, measuring a temperature at which an endothermic amount associated with the volatilization of the amine compound (A) reaches a maximum, and letting this temperature be the maximum endothermic temperature of the amine compound (A).
(Maximum Endothermic Temperature of Amine Compound)
DSC measurements were performed on the amine compounds used in Examples and Comparative Examples to measure the maximum endothermic temperature of the amine compounds as follows. First, a differential scanning calorimetry was performed on the amine compounds using a differential thermogravimetric analyzer (Product Name: DTG-60 produced by Shimadzu Corporation) under conditions of 23 to 350° C. of a measurement temperature range, 10° C./min of a heating rate, and a nitrogen atmosphere. From the DSC curve obtained thereby, the temperature at which the endothermic amount associated with the volatilization of the amine compound reached the maximum was calculated, and the temperature thereof was used as the maximum endothermic temperature of the amine compound.

[5] = Evaluation of absorbed amount of carbon dioxide from air (desiccator); conditions: 5 mmol amine compound in desiccator, air 23° C. and 50% RH, initial CO2 about 400 ppm, after 24 hours
Description: (Evaluation of Absorbed Amount of Carbon Dioxide from Air)
A carbon dioxide concentration meter and a petri dish were placed inside an openable desiccator (Internal Dimension: 370 mm×260 mm×272 mm). The amine compound (5 mmol) was then added to the petri dish in the desiccator, a door was immediately closed, and the carbon dioxide concentration in the desiccator was measured over time for 24 hours under an air environment of 23° C. and 50% RH. The initial concentration of carbon dioxide was adjusted to about 400 ppm. Changes of the carbon dioxide concentration in the desiccator 24 hours after the amine compound was placed in the desiccator are shown in Table 1. Here, it is meant that the greater the change of the carbon dioxide concentration in the desiccator is, the greater the amount of the carbon dioxide absorbed by the carbon dioxide absorbent is.

| Compound | pKa [1] | Amine Value [2] | Maximum CO2 Release Temperature [3] | Maximum Endothermic Temperature [4] | Evaluation of CO2 Absorbed Amount: Changes of CO2 Concentration, 24h [5] |
| --- | --- | --- | --- | --- | --- |
| NCc1cccc(CN)c1 [Comparative Example 1, Meta-xylylenediamine, reference compound] | 9.5 | 824 mgKOH/g | 135.5 °C | 183.5 °C | 329 ppm |
| NCCNCCN [Comparative Example 2, Diethylenetriamine, reference compound] | 9.7 | 1632 mgKOH/g | 127.8 °C | 127.8 °C | 300 ppm |
| NCC1CCC(CN)O1 (stereo not drawn) [Example 1, 2,5-bis(aminomethyl)tetrahydrofuran] | 9.4 | 862 mgKOH/g | 80.3 °C | 155.9 °C | 300 ppm |
| NCc1ccc(CN)o1 [Example 2, 2,5-bisaminomethylfuran] | 9 | 890 mgKOH/g | 85.0 °C | 154.2 °C | 306 ppm |
| NCC1CCOCC1 [Example 3, 4-aminomethyltetrahydropyran] | 10 | 487 mgKOH/g | 111.0 °C | 127.4 °C | 389 ppm |
| NCCN1CCOCC1 [Example 4, 4-(2-aminoethyl)morpholine] | 10.1 | 862 mgKOH/g | 81.5 °C | 145.0 °C | 400 ppm |
| NCc1cccs1 [Example 5, 2-thiophenemethylamine] | 9.5 | 496 mgKOH/g | 83.6 °C | 140.1 °C | 249 ppm |
| NCc1ccco1 [Example 6, Furfurylamine] | 9.2 | 578 mgKOH/g | 66.7 °C | 92.4 °C | 188 ppm |
| Cc1ccc(CN)o1 [Example 7, 5-methylfurfurylamine] | 9.2 | 505 mgKOH/g | 80.7 °C | 115.3 °C | 226 ppm |
